Reference: patent USRE38117E1, “Trioxane dimer compound having antiproliferative and antitumor activities” (Hauser, Inc., priority 1995, dated 2003)

How the values were obtained:
Assay type in all cases: cell-based
HL-60(TB) = assay: NCI 60 cell line screen (SRB), Leukemia
EKVX = assay: NCI 60 cell line screen (SRB), Non-Small Cell Lung Cancer
HOP-92 = assay: as above; conditions: HOP-92 (Non-Small Cell Lung Cancer)
NCI-H23 = assay: as above
NCI-H460 = assay: as above
HCC-2998 = assay: NCI 60 cell line screen (SRB), Colon Cancer; conditions: HCC-2998 (Colon Cancer)
HCT-15 = assay: NCI 60 cell line screen (SRB), Colon Cancer; conditions: HCT-15 (Colon Cancer)
SNB-19 = assay: NCI 60 cell line screen (SRB), CNS Cancer; conditions: SNB-19 (CNS Cancer)
LOX IMVI = assay: NCI 60 cell line screen (SRB), Melanoma
MALME-3M = assay: NCI 60 cell line screen (SRB), Melanoma; conditions: MALME-3M (Melanoma)
SK-MEL-2 = assay: NCI 60 cell line screen (SRB), Melanoma; conditions: SK-MEL-2 (Melanoma)
UACC-257 = assay: NCI 60 cell line screen (SRB), Melanoma; conditions: UACC-257 (Melanoma)
IGROVI = assay: NCI 60 cell line screen (SRB), Ovarian Cancer
OVCAR-3 = assay: NCI 60 cell line screen (SRB), Ovarian Cancer; conditions: OVCAR-3 (Ovarian Cancer)
OVCAR-8 = assay: NCI 60 cell line screen (SRB), Ovarian Cancer; conditions: OVCAR-8 (Ovarian Cancer)
SK-OV-3 = assay: NCI 60 cell line screen (SRB), Ovarian Cancer; conditions: SK-OV-3 (Ovarian Cancer)
ACHN = assay: NCI 60 cell line screen (SRB), Renal Cancer
SN12C = assay: NCI 60 cell line screen (SRB), Renal Cancer
TK-10 = assay: NCI 60 cell line screen (SRB), Renal Cancer; conditions: TK-10 (Renal Cancer)
MCF7 = assay: NCI 60 cell line screen (SRB), Breast Cancer
MCF7/ADR-RES = assay: NCI 60 cell line screen (SRB), Breast Cancer
MDA-MB231/ATCC = assay: NCI 60 cell line screen (SRB), Breast Cancer
HS 578T = assay: NCI 60 cell line screen (SRB), Breast Cancer; conditions: HS 578T (Breast Cancer)
BT-549 = assay: NCI 60 cell line screen (SRB), Breast Cancer; conditions: BT-549 (Breast Cancer)
60 cell line panel = assay: NCI 60 cell line screen, values over the whole panel; conditions: mean value over the cell line panel
[1] = test system: murine keratinocyte cell line PE; assay: Growth inhibition of PE cells (MTT assay); conditions: murine keratinocytes, FIGS. 1-9
Description: To determine the inhibitory effect of the trioxane dimers of the present invention on cell proliferation, screening assays were performed on a murine keratinocyte cell line PE. […] PE cell culture medium consisted of Eagle's minimal essential medium without calcium chloride (Whittaker Bioproducts, Walkersville, Ma.) supplemented with 8% chelexed fetal calf serum and 1% antibiotic-antimycotic (Gibco BRL) and the addition of CaCl2 to 0.05 mM Ca^++. […] (St. Louis, Mo.), and TPA was supplied by L. C. Services (Woburn, Ma.). L-[^14C]ornithine ([…]) was from Amersham/Searle Corp. (Arlington Heights, Ill.). Chemical solvents used in all assays of biological activity were of the highest grade commercially available. Growth Inhibition. […] A mitochondrial dehydrogenase reduces MTT to a blue formazan product with an absorbance maximum of 505 nm in DMSO; the number of viable cells can thus be determined spectrophotometrically. PE cells were seeded at a density of 5,000 cells/well in 50 μL of medium into 96-well microtiter plates. […] The plates were fed once at 48 h, with the readdition of the vitamin D3 analogs at this time. […] After 4 h, the MTT was removed and DMSO added to dissolve the blue formazan dye. Using a microtiter plate reader, the […] was then determined and cell number calculated from blank-subtracted absorbance values.

Question: For COC1OC2(C)CCC3CCCC(CCOCCC4CCCC5CCC6(C)OOC45C(OC)O6)C31OO2 (stereo not shown) [Compound 6, Trioxane Ether Dimer], which Log10GI50 (HL-60(TB)) is on record?
Answer: Its Log10GI50 is −6.48 M.

Question: What about the Log10LC50 (HL-60(TB)) of the same molecule?
Answer: Its Log10LC50 is >−4.00 M.

Question: And the Log10TGI (HL-60(TB))?
Answer: The Log10TGI was −5.77 M.

Question: What about the Log10GI50 (EKVX) of the same molecule?
Answer: The Log10GI50 was −5.56 M.

Question: What about the Log10LC50 (EKVX) of the same molecule?
Answer: Its Log10LC50 is >−4.00 M.

Question: And the Log10TGI (EKVX)?
Answer: The Log10TGI was >−4.00 M.

Question: What about the Log10GI50 (HOP-92) of the same molecule?
Answer: The Log10GI50 was −5.51 M.

Question: What about the Log10LC50 (HOP-92) of the same molecule?
Answer: Its Log10LC50 is >−4.00 M.

Question: What about the Log10TGI (HOP-92) of the same molecule?
Answer: The Log10TGI was −4.17 M.

Question: And the Log10GI50 (NCI-H23)?
Answer: The Log10GI50 was −6.34 M.

Question: And the Log10LC50 (NCI-H23)?
Answer: Its Log10LC50 is >−4.00 M.

Question: What about the Log10TGI (NCI-H23) of the same molecule?
Answer: Its Log10TGI is >−4.00 M.

Question: And the Log10GI50 (NCI-H460)?
Answer: Its Log10GI50 is −6.23 M.

Question: And the Log10LC50 (NCI-H460)?
Answer: Its Log10LC50 is >−4.00 M.

Question: What about the Log10TGI (NCI-H460) of the same molecule?
Answer: Its Log10TGI is >−4.00 M.

Question: And the Log10GI50 (HCC-2998)?
Answer: Its Log10GI50 is −5.94 M.

Question: And the Log10LC50 (HCC-2998)?
Answer: The Log10LC50 was −4.04 M.

Question: And the Log10TGI (HCC-2998)?
Answer: Its Log10TGI is −4.90 M.

Question: What about the Log10GI50 (HCT-15) of the same molecule?
Answer: Its Log10GI50 is −7.28 M.

Question: And the Log10LC50 (HCT-15)?
Answer: Its Log10LC50 is >−4.00 M.

Question: What about the Log10TGI (HCT-15) of the same molecule?
Answer: Its Log10TGI is >−4.00 M.

Question: And the Log10GI50 (SNB-19)?
Answer: Its Log10GI50 is −5.01 M.

Question: And the Log10LC50 (SNB-19)?
Answer: The Log10LC50 was >−4.00 M.

Question: What about the Log10TGI (SNB-19) of the same molecule?
Answer: The Log10TGI was >−4.00 M.

Question: And the Log10GI50 (LOX IMVI)?
Answer: Its Log10GI50 is −6.52 M.

Question: And the Log10LC50 (LOX IMVI)?
Answer: The Log10LC50 was −4.33 M.

Question: And the Log10TGI (LOX IMVI)?
Answer: Its Log10TGI is −4.83 M.

Question: And the Log10GI50 (MALME-3M)?
Answer: The Log10GI50 was −5.69 M.

Question: And the Log10LC50 (MALME-3M)?
Answer: The Log10LC50 was >−4.00 M.

Question: And the Log10TGI (MALME-3M)?
Answer: Its Log10TGI is >−4.00 M.

Question: And the Log10GI50 (SK-MEL-2)?
Answer: Its Log10GI50 is −5.86 M.

Question: And the Log10LC50 (SK-MEL-2)?
Answer: The Log10LC50 was >−4.00 M.

Question: And the Log10TGI (SK-MEL-2)?
Answer: The Log10TGI was −4.13 M.

Question: What about the Log10GI50 (UACC-257) of the same molecule?
Answer: Its Log10GI50 is −5.68 M.

Question: What about the Log10LC50 (UACC-257) of the same molecule?
Answer: Its Log10LC50 is >−4.00 M.

Question: And the Log10TGI (UACC-257)?
Answer: The Log10TGI was >−4.00 M.

Question: What about the Log10GI50 (IGROVI) of the same molecule?
Answer: The Log10GI50 was −5.37 M.

Question: And the Log10LC50 (IGROVI)?
Answer: The Log10LC50 was >−4.00 M.

Question: What about the Log10TGI (IGROVI) of the same molecule?
Answer: Its Log10TGI is −4.13 M.

Question: What about the Log10GI50 (OVCAR-3) of the same molecule?
Answer: Its Log10GI50 is −6.10 M.

Question: What about the Log10LC50 (OVCAR-3) of the same molecule?
Answer: Its Log10LC50 is >−4.00 M.

Question: What about the Log10TGI (OVCAR-3) of the same molecule?
Answer: The Log10TGI was >−4.00 M.

Question: What about the Log10GI50 (OVCAR-8) of the same molecule?
Answer: The Log10GI50 was −6.33 M.

Question: What about the Log10LC50 (OVCAR-8) of the same molecule?
Answer: Its Log10LC50 is >−4.00 M.

Question: What about the Log10TGI (OVCAR-8) of the same molecule?
Answer: The Log10TGI was >−4.00 M.

Question: And the Log10LC50 (SK-OV-3)?
Answer: Its Log10LC50 is >−4.00 M.

Question: What about the Log10TGI (SK-OV-3) of the same molecule?
Answer: The Log10TGI was >−4.00 M.

Question: What about the Log10GI50 (ACHN) of the same molecule?
Answer: Its Log10GI50 is −5.99 M.

Question: What about the Log10LC50 (ACHN) of the same molecule?
Answer: The Log10LC50 was >−4.00 M.

Question: And the Log10TGI (ACHN)?
Answer: Its Log10TGI is >−4.00 M.

Question: And the Log10GI50 (SN12C)?
Answer: Its Log10GI50 is −5.46 M.

Question: What about the Log10LC50 (SN12C) of the same molecule?
Answer: The Log10LC50 was >−4.00 M.

Question: And the Log10TGI (SN12C)?
Answer: Its Log10TGI is >−4.00 M.

Question: And the Log10GI50 (TK-10)?
Answer: The Log10GI50 was −5.60 M.

Question: And the Log10LC50 (TK-10)?
Answer: Its Log10LC50 is >−4.00 M.

Question: And the Log10TGI (TK-10)?
Answer: Its Log10TGI is −4.88 M.

Question: And the Log10GI50 (MCF7)?
Answer: Its Log10GI50 is −6.37 M.

Question: And the Log10LC50 (MCF7)?
Answer: The Log10LC50 was >−4.00 M.

Question: And the Log10TGI (MCF7)?
Answer: Its Log10TGI is >−4.00 M.

Question: What about the Log10GI50 (MCF7/ADR-RES) of the same molecule?
Answer: The Log10GI50 was −6.13 M.

Question: And the Log10LC50 (MCF7/ADR-RES)?
Answer: The Log10LC50 was >−4.00 M.

Question: And the Log10TGI (MCF7/ADR-RES)?
Answer: Its Log10TGI is >−4.00 M.

Question: What about the Log10GI50 (MDA-MB231/ATCC) of the same molecule?
Answer: The Log10GI50 was −5.25 M.

Question: What about the Log10LC50 (MDA-MB231/ATCC) of the same molecule?
Answer: The Log10LC50 was >−4.00 M.

Question: And the Log10TGI (MDA-MB231/ATCC)?
Answer: The Log10TGI was >−4.00 M.

Question: And the Log10LC50 (HS 578T)?
Answer: The Log10LC50 was >−4.00 M.

Question: What about the Log10TGI (HS 578T) of the same molecule?
Answer: Its Log10TGI is >−4.00 M.

Question: What about the Log10GI50 (BT-549) of the same molecule?
Answer: The Log10GI50 was −5.89 M.

Question: What about the Log10LC50 (BT-549) of the same molecule?
Answer: The Log10LC50 was >−4.00 M.

Question: What about the Log10TGI (BT-549) of the same molecule?
Answer: The Log10TGI was >−4.00 M.

Question: What about the “Log10LC50 MG MID” value (60 cell line panel) of the same molecule?
Answer: Its value is −4.05 M.

Question: What about the “Log10TGI MG MID” value (60 cell line panel) of the same molecule?
Answer: Its value is −4.26 M.

Question: What about the antiproliferative activity [1] of the same molecule?
Answer: Its antiproliferative activity is “the most antiproliferative”.
